In US20090325877A1, “Combination Product of Receptor Tyrosine Kinase Inhibitor and Fatty Acid Synthase Inhibitor for Treating Cancer” (Wyeth, priority 2008, published 2009):
≈ marks a conversion by molar mass, not a printed value. Entries after “also recorded” stand apart in the source; their conditions may differ. Where two headings read alike, the source gives them in different places.

Experiments:
[1] = system: A2780 ovarian cancer cells; assay: Formazan dye (MTT) in-vitro cell growth assay, A2780; type: cell-based; conditions: for IC50: Homo sapiens, 72 h
Description: Effect of FAS and ErbB inhibition on A2780 ovarian cancer cells (OCC). […] Cells were grown for three days in the presence of vehicle (0.1% DMSO) or synthetic inhibitor before cell number was estimated. Data in the charts represent means +/−SD of triplicate measurements.
(§1) Cells were plated at 0.5−5×10^3/well in 96-well plates. After adhesion, media ±drugs alone or in combination were added. Cell numbers were estimated after 3-5 days by using a colorimetric formazan dye assay (Biomedica, Vienna, Austria). Results (mean±SD, n=3) were expressed in percent of untreated (solvent) control. Statistical analysis of data from drug combination treatment experiments was performed using one-factorial ANOVA followed by Scheffe-test.
(§2) Yellow MTT (3-(4,5-Dimethylthiazol-2-yl)-2,5-diphenyltetrazolium bromide, a tetrazole) is reduced to purple formazan in the mitochondria of living cells (see Mosmann, T., J. Immunol. Methods, 65(1-2): 55-63, 1983).

[2] = system: SKOV3 ovarian cancer cells; assay: Formazan dye (MTT) in-vitro cell growth assay, SKOV3; type: cell-based
Description: as §1, with “Results (mean±SD, n=3) were expressed in percent of untreated (solvent) control.” left out
as §2

FASN mRNA = FASN mRNA expression by qRT-PCR in A2780 cells; type: cell-based, human
Text: RNA was extracted from the cells using TRI-REAGENT™ (Molecular Research Center, Cincinnati, Ohio) and subjected to reverse transcription—polymerase chain reaction (“RT-PCR”) using the TITAN ONE TUBE RT-PCR KIT™ system (Hoffmann-La Roche). Primers were: EGFR: 5′-[…]-3′ (SEQ ID NO:1) (forward, E1S) 5′-[…]-3′ (SEQ ID NO:2) (reverse, E1A); ErbB-2: 5′-[…]-3′ (SEQ ID NO:3) (forward, E2S2), 5′-[…]-3′ (SEQ ID NO:4) (reverse, E2A2); GAPDH: 5′-[…]-3′ (SEQ ID NO:5) (forward, GAPDH3S), 5′-[…]-3′ (SEQ ID NO:6) (reverse, GAPDH3A). Conditions for reverse transcription and amplification of the EGFR coding sequence were: 50° C., 30 minutes; 94° C., 2 minutes; 10 cycles (94° C., 30 seconds; 64.9° C., 30 seconds; 68° C., 90 seconds); 30 cycles (94° C., 30 seconds; 64.9° C., 30 seconds; 68° C., 90 seconds +5 seconds autoextension) and 68° C., 7 minutes. Conditions for ErbB2 and GAPDH were: 50° C., 30 minutes; 94° C., 2 minutes; 10 cycles (94° C., 30 seconds; 51° C., 30 seconds; 68° C., 45 seconds); 25 cycles (94° C., 30 seconds; 51° C., 30 seconds; 68° C., 45 seconds +5 seconds autoextension) and 68° C., 7 minutes. DNA products had the following sizes: EGFR: 1452 bp, ErbB2: 900 bp, GAPDH: 488 bp. Fragments were electrophoresed and stained with ethidium bromide.
(§3) Quantitative RT-PCR (“qRT-PCR”) was performed in the ABI PRISM 7000™ Sequence Detector (Applied Biosystems, Foster City, Calif.) using human EGFR, ErbB2, and FASN TaqMan® Gene Expression Assay systems (Applied Biosystems; Assay IDs: Hs00193306_m1, Hs00170433_m1, Hs00188012_m1) according to the manufacturer's instructions. β-actin and GAPDH (VIC™ and FAM labeled pre-developed TaqMan® Assay reagents, Applied Biosystems) were used as endogenous controls. EGFR, ErbB2, and FASN mRNA expression were calculated as described previously (Grunt, ibid).

EGFR mRNA = EGFR mRNA by qRT-PCR in SKBR3 breast cancer cells; type: cell-based; conditions: Homo sapiens, SK-BR-3, read-out: IC50, down-regulation of EGFR mRNA
Text: (§4) RNA was extracted from the cells using TRI-REAGENT™ (Molecular Research Center, Cincinnati, Ohio) and subjected to reverse transcription—polymerase chain reaction (“RT-PCR”) using the TITAN ONE TUBE RT-PCR KIT™ system (Hoffmann-La Roche). Primers were: EGFR: 5′-[…]-3′ (SEQ ID NO:1) (forward, E1S) 5′-[…]-3′ (SEQ ID NO:2) (reverse, E1A); ErbB-2: 5′-[…]-3′ (SEQ ID NO:3) (forward, E2S2), 5′-[…]-3′ (SEQ ID NO:4) (reverse, E2A2); GAPDH: 5′-[…]-3′ (SEQ ID NO:5) (forward, GAPDH3S), 5′-[…]-3′ (SEQ ID NO:6) (reverse, GAPDH3A). Conditions for reverse transcription and amplification of the EGFR coding sequence were: 50° C., 30 minutes; 94° C., 2 minutes; 10 cycles (94° C., 30 seconds; 64.9° C., 30 seconds; 68° C., 90 seconds); 30 cycles (94° C., 30 seconds; 64.9° C., 30 seconds; 68° C., 90 seconds +5 seconds autoextension) and 68° C., 7 minutes. […]
as §3

EGFR protein = EGFR protein and tyrosine phosphorylation by Western blot in A2780 cells; type: cell-based
ErbB2 mRNA = ErbB2 mRNA by qRT-PCR in SKBR3 breast cancer cells; type: cell-based, human
Text: as §4, §3

C=C1C(=O)OC(CCCCCCCC)C1C(=O)O (stereo not drawn) [C75, tetrahydro-3-methylene-2-oxo-5-n-octyl-4-furancarboxylic acid]
in vitro growth inhibition (in words) ([1]; A2780, MTT assay, single drug): growth inhibitory activity
IC50 ([1]; A2780 OCC, each individual inhibitor, 50% reduction of cell growth, three days, n = 3-5, read-out: IC50 (μM) Mean +/− SD): 21.9 µM
IC50 ([1]; A2780 ovarian cancer cells, grown three days with inhibitor, read-out: IC50, growth of OCC (MTT assay)): 22 µM
inhibition at 10 µg/mL ([2]; Homo sapiens, SK-OV-3, 10 μg/ml C75 on its own): 50 to 55%
in vitro growth inhibition (in words) ([2]; MTT assay, single drug): growth inhibitory activity
IC50 (FASN mRNA; Homo sapiens, 72 h, after 3 days, qRT-PCR, read-out: IC50, down-regulation of FASN mRNA expression): 5.25 µg/mL (≈ 20.6 µM)
IT50 (time of exposure after which a 50% inhibition is obtained), FASN mRNA (FASN mRNA; at 7 μg/ml): 21.5 h
FASN mRNA expression, effect in words (FASN mRNA; b102: within three days, pelitinib at doses as low as 3 μM): shut-down
IC50 (EGFR mRNA): 7.5 µg/mL (≈ 29.5 µM)
EGFR total protein, effect in words (EGFR protein): slowly and concordantly reduces
EGFR tyrosine phosphorylation (activity), effect in words (EGFR protein): slowly and concordantly reduces
IT50, EGFR phosphorylation (EGFR protein): 20 h
IT50, EGFR protein (EGFR protein): 29 h
IC50 (EGFR protein; Homo sapiens, Western blot): 3.6 µg/mL (≈ 14.2 µM)
ErbB2 mRNA, effect in words (ErbB2 mRNA): dose-dependent decline; also recorded: dose-dependent down-regulation
